Data published in patent publication US20210045385A1, “PYRIDAZINONE-SUBSTITUTED KETOXIMES AS HERBICIDES” (FMC Corporation, priority 2018, published 2021).

Key:
Assay type in all cases: in vivo
[1] = system: galium (catchweed bedstraw, Galium aparine); experiment: Test A postemergence, visual plant response rating; details: for Galium plant response rating (0 to 100 scale): 500 g ai/ha, postemergence, 0 is no effect, 100 is complete control; for Galium plant response rating: Postemergence, 125 g ai/ha, 0 to 100 scale (0 no effect, 100 complete control)
How it was run: (§1)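 Formulated in a non-phytotoxic solvent mixture including surfactant, each test chemical was sprayed onto the soil surface after sowing, or onto seedlings 2 to 10 cm high. Roughly 10 days later, plants were compared with untreated controls and rated for injury from 0 (no effect) to 100 (complete control).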

corn (Zea mays) = experiment: Test A postemergence, visual plant response rating; details: for Corn plant response rating (0 to 100 scale): 500 g ai/ha, postemergence, 0 is no effect, 100 is complete control; for Corn plant response rating: Postemergence, 125 g ai/ha, 0 to 100 scale (0 no effect, 100 complete control)
How it was run: as §1

[2] = system: Italian ryegrass (Lolium multiflorum); experiment: Test A postemergence, visual plant response rating; details: for Ryegrass, Italian plant response rating (0 to 100 scale): 500 g ai/ha, postemergence, 0 is no effect, 100 is complete control; for Ryegrass, Italian plant response rating: Postemergence, 125 g ai/ha, 0 to 100 scale (0 no effect, 100 complete control)
How it was run: as §1

[3] = system: ragweed (common ragweed, Ambrosia elatior); experiment: Test A postemergence, visual plant response rating; details: for Ragweed plant response rating (0 to 100 scale): 500 g ai/ha, postemergence, 0 is no effect, 100 is complete control; for Ragweed plant response rating: Postemergence, 125 g ai/ha, 0 to 100 scale (0 no effect, 100 complete control)
How it was run: as §1

[4] = system: foxtail, giant (giant foxtail, Setaria faberii); experiment: Test A postemergence, visual plant response rating; details: for Foxtail, Giant plant response rating (0 to 100 scale): 500 g ai/ha, postemergence, 0 is no effect, 100 is complete control; for Foxtail, Giant plant response rating: Postemergence, 125 g ai/ha, 0 to 100 scale (0 no effect, 100 complete control)
How it was run: as §1

[5] = system: blackgrass (Alopecurus myosuroides); experiment: Test A postemergence, visual plant response rating; details: for Blackgrass plant response rating (0 to 100 scale): 500 g ai/ha, postemergence, 0 is no effect, 100 is complete control; for Blackgrass plant response rating: Postemergence, 125 g ai/ha, 0 to 100 scale (0 no effect, 100 complete control)
How it was run: as §1

[6] = system: pigweed (Amaranthus retroflexus); experiment: Test A postemergence, visual plant response rating; details: for Pigweed plant response rating (0 to 100 scale): 500 g ai/ha, postemergence, 0 is no effect, 100 is complete control; for Pigweed plant response rating: Postemergence, 125 g ai/ha, 0 to 100 scale (0 no effect, 100 complete control)
How it was run: as §1

kochia (Kochia scoparia) [7] = experiment: Test A postemergence, visual plant response rating; details: for Kochia plant response rating (0 to 100 scale): 500 g ai/ha, postemergence, 0 is no effect, 100 is complete control; for Kochia plant response rating: Postemergence, 125 g ai/ha, 0 to 100 scale (0 no effect, 100 complete control)
How it was run: as §1

[8] = system: barnyardgrass (Echinochloa crus-galli); experiment: Test A postemergence, visual plant response rating; details: for Barnyardgrass plant response rating (0 to 100 scale): 500 g ai/ha, postemergence, 0 is no effect, 100 is complete control; for Barnyardgrass plant response rating: Postemergence, 125 g ai/ha, 0 to 100 scale (0 no effect, 100 complete control)
How it was run: as §1

[9] = system: wheat (Triticum aestivum); experiment: Test A postemergence, visual plant response rating; details: for Wheat plant response rating (0 to 100 scale): 500 g ai/ha, postemergence, 0 is no effect, 100 is complete control; for Wheat plant response rating: Postemergence, 125 g ai/ha, 0 to 100 scale (0 no effect, 100 complete control)
How it was run: as §1

[10] = system: ducksalad (Heteranhera limosa); experiment: Test B flooded paddy test, visual plant response rating; details: 250 g ai/ha, Flood, applied to paddy water, 2-leaf stage, evaluated after 13 to 15 days
How it was run: (§2)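 Visual scores compare treated plants with controls after 13 to 15 days of greenhouse growth. Treatment was made into paddy water standing 3 cm above the soil, with plants at the 2-leaf stage and flooding maintained throughout.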

[11] = system: sedge, umbrella (small-flower umbrella sedge, Cyperus difformis); experiment: as above; details: 250 g ai/ha, Flood, applied to paddy water, 2-leaf stage, evaluated after 13 to 15 days
How it was run: as §2

rice (Oryza sativa) = experiment: as above; details: 250 g ai/ha, Flood, applied to paddy water, 2-leaf stage, evaluated after 13 to 15 days
How it was run: as §2

[12] = system: barnyardgrass (Echinochloa crus-galli); experiment: as above; details: 250 g ai/ha, Flood, applied to paddy water, 2-leaf stage, evaluated after 13 to 15 days
How it was run: as §2

[13] = system: Italian ryegrass (Lolium multiflorum); experiment: Test A preemergence, visual plant response rating; details: for Ryegrass, Italian plant response rating: 125 g ai/ha, preemergence, 0 to 100 scale, 0 no effect, 100 complete control; for Ryegrass, Italian plant response rating (0 to 100 scale): 500 g ai/ha Preemergence, approx. 10 days
How it was run: as §1

[14] = system: ragweed (common ragweed, Ambrosia elatior); experiment: Test A preemergence, visual plant response rating; details: for Ragweed plant response rating: 125 g ai/ha, preemergence, 0 to 100 scale, 0 no effect, 100 complete control; for Ragweed plant response rating (0 to 100 scale): 500 g ai/ha Preemergence, approx. 10 days
How it was run: as §1

[15] = system: foxtail, giant (giant foxtail, Setaria faberii); experiment: Test A preemergence, visual plant response rating; details: for Foxtail, Giant plant response rating: 125 g ai/ha, preemergence, 0 to 100 scale, 0 no effect, 100 complete control; for Foxtail, Giant plant response rating (0 to 100 scale): 500 g ai/ha Preemergence, approx. 10 days
How it was run: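 Ratings 0–100 (100 = complete control), visual, vs untreated controls at ~10 days. Application pre- or postemergence; solvent mixture with surfactant; loam/sand medium.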

[16] = system: pigweed (Amaranthus retroflexus); experiment: Test A preemergence, visual plant response rating; details: for Pigweed plant response rating: 125 g ai/ha, preemergence, 0 to 100 scale, 0 no effect, 100 complete control; for Pigweed plant response rating (0 to 100 scale): 500 g ai/ha Preemergence, approx. 10 days
How it was run: as §1

kochia (Kochia scoparia) [17] = experiment: Test A preemergence, visual plant response rating; details: for Kochia plant response rating: 125 g ai/ha, preemergence, 0 to 100 scale, 0 no effect, 100 complete control; for Kochia plant response rating (0 to 100 scale): 500 g ai/ha Preemergence, approx. 10 days
How it was run: as §1

[18] = system: barnyardgrass (Echinochloa crus-galli); experiment: Test A preemergence, visual plant response rating; details: for Barnyardgrass plant response rating: 125 g ai/ha, preemergence, 0 to 100 scale, 0 no effect, 100 complete control; for Barnyardgrass plant response rating (0 to 100 scale): 500 g ai/ha Preemergence, approx. 10 days
How it was run: as §1

Structure (SMILES)	Galium plant response rating (0 to 100 scale) [1]	Galium plant response rating [1]	Corn plant response rating (0 to 100 scale) (corn (Zea mays))	Corn plant response rating (corn (Zea mays))	Ryegrass, Italian plant response rating (0 to 100 scale) [2]	Ryegrass, Italian plant response rating [2]	Ragweed plant response rating (0 to 100 scale) [3]	Ragweed plant response rating [3]	Foxtail, Giant plant response rating (0 to 100 scale) [4]	Foxtail, Giant plant response rating [4]	Blackgrass plant response rating (0 to 100 scale) [5]	Blackgrass plant response rating [5]	Pigweed plant response rating (0 to 100 scale) [6]	Pigweed plant response rating [6]	Kochia plant response rating (0 to 100 scale) (kochia (Kochia scoparia) [7])	Kochia plant response rating (kochia (Kochia scoparia) [7])	Barnyardgrass plant response rating (0 to 100 scale) [8]	Barnyardgrass plant response rating [8]	Wheat plant response rating (0 to 100 scale) [9]	Wheat plant response rating [9]	also measured
CON=C(c1c(O)c(C)nn(C)c1=O)c1cccc2sccc12 [Compound 58]	90	80	0	0	90	80	100	50	80	40	90	80	90	70	70	60	50	20	80	40	Plant response rating, Ducksalad (0 to 100 scale, 0 is no effect, 100 is complete control) [10]: 0; Plant response rating, Sedge, Umbrella (0 to 100 scale, 0 is no effect, 100 is complete control) [11]: 0; Plant response rating, Rice (0 to 100 scale, 0 is no effect, 100 is complete control) (rice (Oryza sativa)): 0; Plant response rating, Barnyardgrass (0 to 100 scale, 0 is no effect, 100 is complete control) [12]: 0; Ryegrass, Italian plant response rating [13]: 70; Ryegrass, Italian plant response rating (0 to 100 scale) [13]: 100; Ragweed plant response rating [14]: 60; Ragweed plant response rating (0 to 100 scale) [14]: 80; Foxtail, Giant plant response rating [15]: 60; Foxtail, Giant plant response rating (0 to 100 scale) [15]: 100; Pigweed plant response rating [16]: 10; Pigweed plant response rating (0 to 100 scale) [16]: 50; Kochia plant response rating (kochia (Kochia scoparia) [17]): 30; Kochia plant response rating (0 to 100 scale) (kochia (Kochia scoparia) [17]): 60; Barnyardgrass plant response rating [18]: 10; Barnyardgrass plant response rating (0 to 100 scale) [18]: 60
CO/N=C(/c1ccccc1C#N)c1c(O)c(C)nn(C)c1=O [Compound 77]	40	40	0	0	20	0	30	0	10	0	0	0	70	30	30	0	0	0	0	0	Plant response rating, Ducksalad (0 to 100 scale, 0 is no effect, 100 is complete control) [10]: 0; Plant response rating, Sedge, Umbrella (0 to 100 scale, 0 is no effect, 100 is complete control) [11]: 0; Plant response rating, Rice (0 to 100 scale, 0 is no effect, 100 is complete control) (rice (Oryza sativa)): 0; Plant response rating, Barnyardgrass (0 to 100 scale, 0 is no effect, 100 is complete control) [12]: 0; Ryegrass, Italian plant response rating [13]: 0; Ryegrass, Italian plant response rating (0 to 100 scale) [13]: 0; Ragweed plant response rating [14]: 10; Ragweed plant response rating (0 to 100 scale) [14]: 30; Foxtail, Giant plant response rating [15]: 0; Foxtail, Giant plant response rating (0 to 100 scale) [15]: 0; Pigweed plant response rating [16]: 0; Pigweed plant response rating (0 to 100 scale) [16]: 0; Kochia plant response rating (kochia (Kochia scoparia) [17]): 0; Kochia plant response rating (0 to 100 scale) (kochia (Kochia scoparia) [17]): 0; Barnyardgrass plant response rating [18]: 0; Barnyardgrass plant response rating (0 to 100 scale) [18]: 0
C=CCc1ccccc1C(=NOC)c1c(O)c(C)nn(C)c1=O [Compound 121]	90	60	10	0	90	60	70	40	60	20	70	30	70	50	60	40	70	0	40	30	Plant response rating, Ducksalad (0 to 100 scale, 0 is no effect, 100 is complete control) [10]: 0; Plant response rating, Sedge, Umbrella (0 to 100 scale, 0 is no effect, 100 is complete control) [11]: 0; Plant response rating, Rice (0 to 100 scale, 0 is no effect, 100 is complete control) (rice (Oryza sativa)): 0; Plant response rating, Barnyardgrass (0 to 100 scale, 0 is no effect, 100 is complete control) [12]: 0; Ryegrass, Italian plant response rating [13]: 50; Ryegrass, Italian plant response rating (0 to 100 scale) [13]: 100; Ragweed plant response rating [14]: 10; Ragweed plant response rating (0 to 100 scale) [14]: 50; Foxtail, Giant plant response rating [15]: 10; Foxtail, Giant plant response rating (0 to 100 scale) [15]: 80; Pigweed plant response rating [16]: 10; Pigweed plant response rating (0 to 100 scale) [16]: 90; Kochia plant response rating (kochia (Kochia scoparia) [17]): 0; Kochia plant response rating (0 to 100 scale) (kochia (Kochia scoparia) [17]): 30; Barnyardgrass plant response rating [18]: 0; Barnyardgrass plant response rating (0 to 100 scale) [18]: 20
